Test system: P. putida F1
Assay: Growth of P. putida F1 test tube cultures in MMC medium with ICR 191 (mutation procedure 1)
Type: cell-based, Pseudomonas putida
Settings: 16 to 18 hour incubation, 30° C., dark
Description: In procedure 1, cells were grown overnight in TSB at 30° C. and diluted 10^-4 with phosphate buffer (100 mM, pH 7.2). Several 18×150 mm test tubes containing 3 ml of MMC medium plus 0 (control), 10, 20, 30, 40, 50, 75, or 100 mg/l ICR 191 were inoculated with 0.1 ml of the diluted inoculum. Test tube cultures were incubated in the dark at 30° C. with 220 RPM agitation. […] The cells from 20 mg/l ICR 191 culture were harvested by centrifugation, washed twice with phosphate buffer.

## COc1ccc2nc3cc(Cl)ccc3c(NCCCNCCCl)c2c1 [ICR 191]
10 mg/l ICR 191
  effect on growth: no detectable effect on growth
20 mg/l ICR 191
  level of growth relative to control: approximately half that of the control
30 mg/l ICR 191
  growth of culture: a trace of growth
ICR 191 concentrations above 30 mg/l
  growth of culture: completely inhibited growth

— patent US5824540A, “Pseudomonas putida strain with dioxygenase activity” (Merck & Co., Inc., priority 1996, dated 1998)
